# Assay results reported in patent US9771389B2, “Tylosin derivatives and method for preparation thereof” (BAYER ANIMAL HEALTH GMBH, priority 2013, dated 2017).
# Columns and labels:
# [1] = tested on: Bacillus subtilis ATCC6633; assay: Paper disc assay, Bacillus subtilis; assay type: cell-based; conditions: S
# Description: (§1) (2) Antibacterial activities against other bacteria were determined with Micrococcus luteus ATCC9341 (1), Bacillus subtilis […] (s), Escherichia coli NIHJ (c), Xanthomonas campestris KB88 (X), Mucor racemosus IFO 4581 (Mu) and Candida albicans ATCC 64548 (Ca).
# (§2) Bacillus subtilis ATCC6633 was incubated in Davis synthetic medium and then the seed broth was combined with the medium in the ratio of 1:99 to obtain a test plate. Micrococcus luteus ATCC9341, Escherichia coli NIHJ and Xanthomonas campestris KB88 were respectively incubated in Nutrient agar medium and inoculated at 0.2%, 0.5% and 1.0%. Mucor racemosus IFO 4581 and Candida albicans ATCC 64548 were respectively incubated in GY agar medium and then inoculated at 0.3% and 0.2%.
# (§3) A paper disc (ADVANTEC, Φ:6 mm) was impregnated with a solution of test compound and dried under reduced pressure. The paper disc was put on the test plate and it was incubated for 24 hours at 37° C. After incubation, the inhibition zone diameter and clarity (A to E) were determined.
# [2] = tested on: Micrococcus luteus ATCC9341; assay: Paper disc assay, Micrococcus luteus; assay type: cell-based; conditions: column 1
# Description: as §1, §2, §3
# Escherichia coli NIHJ = assay: Paper disc assay, Escherichia coli; assay type: cell-based; conditions: c; 10 mg/6 mm disc
# Description: as §1, §2, §3
# [3] = tested on: Xanthomonas campestris KB88; assay: Paper disc assay, Xanthomonas campestris; assay type: cell-based; conditions: X
# Description: as §1, §2, §3
# [4] = tested on: M. hemolytica KB345 (Tilmicosin-sensitivity strain); assay: Paper disc assay, M. hemolytica KB345; assay type: cell-based, Mannhemia hemolytica; conditions: Table 4
# Description: (§4) (1) Antibacterial activities against Mannheimia and Pasteurella were determined by the following steps: • 1) M. hemolytica KB345 (Tilmicosin-sensitivity strain) and M. hemolytica KB346 (Tilmicosin-low sensitivity strain) were provided. KB 345 strain stored at −80° C. was seeded to BHIB agar medium (10 mL) by using Microbank beads (Pro-Lab) and platinum nail. After statically incubating the KB 345 strain for 24 hours at 37° C., it was seeded to maintaining slant BHIB agar medium (7 mL) by using platinum loop, further statically incubated for 24 hours at 37° C. to obtain slant. One platinum loop of KB 345 strain stored at the slant was inoculated into a large test tube charged with BHIB liquid medium (10 mL) and then incubated for 24 hours at 37° C. with shaking. • 2) A paper disc (ADVANTEC, Φ:6 mm) was impregnated with a solution of test compound and dried under reduced pressure. • 3) To a melted BHIB agar medium was inoculated 1% of the broth obtained from step 1) above to prepare a test plate. After the medium set, the paper disc prepared in step 2) above was put on the plate and it was incubated at 37° C. • 4) After one day, the inhibition zone diameter and clarity (A to E) were determined. For KB346 strain, the same procedures were repeated.
# [5] = tested on: M. hemolytica KB346 (Tilmicosin-low sensitivity strain); assay: Paper disc assay, M. hemolytica KB346; assay type: cell-based, Mannhemia hemolytica; conditions: 100 mg/6 mm disk; Table 5
# Description: as §4
# [6] = tested on: Mannheimia haemolytica, 3 isolates; assay: MIC against Mannheimia haemolytica isolates; assay type: cell-based; conditions: for MIC: Mannheimia haemolytica, 3ISOLATES, 3 Mannheimia haemolytica isolates, broth dilution method, read-out: Range of minimum inhibitory concentrations (MIC)
# Description: (§5) Minimal inhibitory concentrations (MICs) were determined against the most prevalent pathogens in cattle (Mannheimia Haemolytica, 3 isolates) and swine (A. pleuropneumoniae, 6 isolates). In addition the activity of several compounds was tested against two bacterial species, i.e. Mannheimia haemolytica and Actinobacillus pleuropneumoniae, which are considered as the most important bacterial respiratory pathogens in cattle and swine, respectively.
# [7] = tested on: Actinobacillus pleuropneumoniae, 6 isolates; assay: MIC against Actinobacillus pleuropneumoniae isolates; assay type: cell-based; conditions: for MIC: 6ISOLATES, 6 Actinobacillus pleuropneumoniae isolates, broth dilution method, read-out: Range of minimum inhibitory concentrations (MIC)
# Description: as §5
# Arcanobacterium pyogenes = assay: MIC50 mastitis pathogens, broth dilution; assay type: cell-based; conditions: Trueperella pyogenes, A. pyogenes, 7 to 12 isolates, 24 hours
# From the text: (§6) The activity of several compounds against bacterial mastitis pathogens has been tested under in-vitro conditions according to a recognized procedure (CLSI, document […]-A3, 2008). In this test 7 to 12 representative bacteria belonging to 7 bacterial species that typically cause mastitis in dairy cattle, i.e. Staphylococcus aureus, coagulase negative staphylococci (CNS), Streptococcus uberis, Streptococus dysgalactiae, Streptococcus agalactiae, Arcanobacterium pyogenes and Escherichia coli, were exposed to two-fold dilutions of the test compounds. After 24 hours of incubation the concentration that inhibited the growth of this bacteria was determined. It could be shown that all these bacterial mastitis pathogens were highly susceptible to the test compounds.
# Escherichia coli = assay: MIC50 mastitis pathogens, broth dilution; assay type: cell-based; conditions: E. coli, 7 to 12 isolates, 24 hours
# From the text: as §6
# Staphylococcus aureus = assay: MIC50 mastitis pathogens, broth dilution; assay type: cell-based; conditions: S. aureus, 7 to 12 isolates, 24 hours
# From the text: as §6
# Streptococcus agalactiae = assay: MIC50 mastitis pathogens, broth dilution; assay type: cell-based; conditions: Str agalactiae, 7 to 12 isolates, 24 hours
# From the text: as §6
# Streptococcus uberis = assay: MIC50 mastitis pathogens, broth dilution; assay type: cell-based; conditions: Str uberis, 7 to 12 isolates, 24 hours
# From the text: as §6
# [8] = tested on: Streptococus dysgalactiae; assay: MIC50 mastitis pathogens, broth dilution; assay type: cell-based; conditions: Str dysgalactiae, 7 to 12 isolates, 24 hours
# From the text: as §6
# [9] = tested on: coagulase negative staphylococci (CNS); assay: MIC50 mastitis pathogens, broth dilution; assay type: cell-based; conditions: 7 to 12 isolates, 24 hours
# From the text: as §6
# [10] = tested on: S. aureus bacteria (strain Newbould); assay: Mouse mastitis model of infection; assay type: in vivo, mice; conditions: for mean S. aureus count in glands: 14 hours after application, untreated 8.64 log 10
# From the text: The clinical efficacy of compound YT709 against mastitis caused by S. aureus was shown in lactating mice according to a recognized published procedure (E. Brouillette, G. Grondin, C. Lefebvre, B. G. Talbot, F. Malouin, Mouse mastitis model of infection for antimicrobial compound efficacy studies against intracellular and extracellular forms of Staphylococcus aureus, Veterinary Microbiology, 101, (2004), 253-262). Into the glands of lactating mice S. aureus bacteria (strain Newbould) were instilled and allowed to multiply. Bacterium S. aureus Newbould is an isolate which was isolated from a clinical case of bovine mastitis and which also causes typical mastitis infection in dairy cattle upon experimental, intramammary infection. Four hours after the intramammary infection of lactating mice with S. aureus Newbould, compound YT709 was instilled into the infected glands. Different intramammary dosages of YT709 were tested and their efficacy compared to an infected, untreated control group. Fourteen hours after intramammary application of YT709, the glands of the treated and untreated mice were removed, homogenized and the number of S. aureus bacteria counted in 10-fold dilutions of the homogenized glands. The mean S. aureus count of 8 untreated glands was 10^8.64 (8.64 log 10) bacteria. The mean S. aureus count in 6 glands that had been treated with 200 microgram YT709 was 10^5.10 bacteria (5.10 log 10). […] The mean S. aureus count in the 5 glands that had been treated with 400 microgram YT709 was 10^2.34 bacteria (2.34 log 10).
Compound,MIC50 (Arcanobacterium pyogenes),MIC50 (Escherichia coli),MIC50 (Staphylococcus aureus),MIC50 (Streptococcus agalactiae),MIC50 (Streptococcus uberis),MIC50 [8],MIC50 [9],MIC [7],MIC [6],other results
"CC[C@H]1OC(=O)C[C@@H](O)[C@H](C)[C@@H](O[C@@H]2O[C@H](C)[C@@H](O)[C@H](N(C)C)[C@H]2O)[C@@H](CCn2cc(-c3ccsc3)nn2)C[C@@H](C)C(=O)/C=C/C(C)=C/[C@@H]1CO[C@@H]1O[C@H](C)[C@@H](O)[C@@H](OC)[C@H]1OC [YT14, 20-(4-(thiophene-3-yl)-1H-1,2,3-triazol-1-yl)-20-deoxodesmycosin]",,,,,,,,,,Inhibition zone ([1]; 0.1 mg/6 mm disc): 8 mm; Inhibition zone ([1]; 1 mg/6 mm disc): 11 mm; Inhibition zone ([1]; 10 mg/6 mm disc): 15 mm; Inhibition zone ([2]; 0.1 mg/6 mm disc): 13.5 mm; Inhibition zone ([2]; 1 mg/6 mm disc): 20.5 mm; Inhibition zone ([2]; 10 mg/6 mm disc): 26.5 mm; Inhibition zone (Escherichia coli NIHJ): 7 mm; Inhibition zone ([3]; 0.1 mg/6 mm disc): 7 mm; Inhibition zone ([3]; 1 mg/6 mm disc): 16 mm; Inhibition zone ([3]; 10 mg/6 mm disc): 22 mm
"CCC1OC(=O)CC(O)C(C)C(OC2OC(C)C(O)C(N(C)C)C2O)C(CCn2cc(-c3ccccc3)nn2)CC(C)C(=O)C=CC(C)=CC1CO (stereo not shown) [YT112, 20-(4-phenyl-1H-1,2,3-triazol-1-yl)-20-deoxo-5-O-mycaminosyltylonolide]",,,,,,,,,,Inhibition zone ([4]; 3 mg/6 mm disk): 17.0 mm; Inhibition zone ([4]; 10 mg/6 mm disk): 20.0 mm; Inhibition zone ([4]; 30 mg/6 mm disk): 25.0 mm; Inhibition zone ([4]; 100 mg/6 mm disk): 29.0 mm; Inhibition zone [5]: 11.5 mm; MICs ([6]; M. haemolytica isolate 1): 8 µg/mL; MICs ([6]; M. haemolytica isolate 2): 4 µg/mL; MICs ([6]; M. haemolytica isolate 3): 8 µg/mL; MICs ([7]; pleuropneumoniae isolate 1): 4 µg/mL; MICs ([7]; pleuropneumoniae isolate 2): 4 µg/mL; MICs ([7]; pleuropneumoniae isolate 3): 4 µg/mL; MICs ([7]; pleuropneumoniae isolate 4): 8 µg/mL; MICs ([7]; pleuropneumoniae isolate 5): 4 µg/mL; MICs ([7]; pleuropneumoniae isolate 6): 8 µg/mL
CC[C@H]1OC(=O)C[C@@H](O)[C@H](C)[C@@H](O[C@@H]2OC(C)[C@@H](O)C(N(C)C)C2O)[C@@H](CCN(C)Cc2cn(-c3cnc4ccccc4c3)nn2)C[C@@H](C)C(=O)/C=C/C(C)=C/[C@@H]1CO (stereo partly shown) [YT650],0.004 µg/mL,8 µg/mL,0.25 µg/mL,0.008 µg/mL,0.03 µg/mL,0.03 µg/mL,0.25 µg/mL,,,
CC[C@H]1OC(=O)C[C@@H](O)[C@H](C)[C@@H](O[C@@H]2OC(C)[C@@H](O)C(N(C)C)C2O)[C@@H](CCN(Cc2ccccc2)Cc2cn(-c3cnc4ccccc4c3)nn2)C[C@@H](C)C(=O)/C=C/C(C)=C/[C@@H]1CO (stereo partly shown) [YT709],0.008 µg/mL,16 µg/mL,≤ 0.03 µg/mL,0.06 µg/mL,0.06 µg/mL,0.06 µg/mL,≤ 0.03 µg/mL,2 to 4 µg/mL,2 to 4 µg/mL,"reduction of number of bacteria vs untreated glands ([10]; 200 microgram intramammary): about 3500 fold; mean S. aureus count in glands ([10]; 200 microgram intramammary, 6 glands): 5.10 log 10; glands in which the infection was cleared ([10]; 400 microgram intramammary): 2 out of 5; reduction of number of bacteria vs untreated glands ([10]; 400 microgram intramammary): about two million; mean S. aureus count in glands ([10]; 400 microgram intramammary, 5 glands): 2.34 log 10"
CC[C@H]1OC(=O)C[C@@H](O)[C@H](C)[C@@H](O[C@@H]2OC(C)[C@@H](O)C(N(C)C)C2O)[C@@H](CCN(C)Cc2cn(-c3cnc4ccccc4c3)nn2)C[C@@H](C)C(=O)/C=C/C(C)=C/[C@@H]1CN(C)C (stereo partly shown) [YT770],≤ 0.015 µg/mL,4 µg/mL,0.25 µg/mL,≤ 0.015 µg/mL,0.03 µg/mL,0.03 µg/mL,0.25 µg/mL,,,

# Second part, led by results:
MIC50 (Arcanobacterium pyogenes),MIC50 (Escherichia coli),MIC50 (Staphylococcus aureus),MIC50 (Streptococcus agalactiae),MIC50 (Streptococcus uberis),MIC50 [8],MIC50 [9],MIC [7],Compound,MIC [6],other results
0.06 µg/mL,8 µg/mL,0.5 µg/mL,0.125 µg/mL,0.12 µg/mL,0.25 µg/mL,0.5 µg/mL,8 µg/mL,CC[C@H]1OC(=O)C[C@@H](O)[C@H](C)[C@@H](O[C@@H]2OC(C)[C@@H](O)C(N(C)C)C2O)[C@@H](CCNCCn2cc(-c3ccc(-c4ccccc4)cc3)nn2)C[C@@H](C)C(=O)/C=C/C(C)=C/[C@@H]1CO (stereo partly shown) [YT721],1 to 4 µg/mL,
0.008 µg/mL,8 µg/mL,0.5 µg/mL,0.03 µg/mL,0.03 µg/mL,0.12 µg/mL,0.25 µg/mL,2 to 4 µg/mL,CC[C@H]1OC(=O)C[C@@H](O)[C@H](C)[C@@H](O[C@@H]2OC(C)[C@@H](O)C(N(C)C)C2O)[C@@H](CCNCCn2cc(-c3cnc4ccccc4c3)nn2)C[C@@H](C)C(=O)/C=C/C(C)=C/[C@@H]1CO (stereo partly shown) [YT732],1 to 4 µg/mL,
0.008 µg/mL,8 µg/mL,0.5 µg/mL,0.03 µg/mL,0.03 µg/mL,0.12 µg/mL,0.25 µg/mL,,CC[C@H]1OC(=O)C[C@@H](O)[C@H](C)[C@@H](O[C@@H]2OC(C)[C@@H](O)C(N(C)C)C2O)[C@@H](CCNCc2cn(-c3cnc4ccccc4c3)nn2)C[C@@H](C)C(=O)/C=C/C(C)=C/[C@@H]1CO (stereo partly shown) [YT739],,
0.015 µg/mL,8 µg/mL,1 µg/mL,0.03 µg/mL,0.03 µg/mL,0.12 µg/mL,0.25 µg/mL,,CC[C@H]1OC(=O)C[C@@H](O)[C@H](C)[C@@H](O[C@@H]2OC(C)[C@@H](O)C(N(C)C)C2O)[C@@H](CCN(Cc2ccccc2)Cc2cn(-c3ccc4ccccc4c3)nn2)C[C@@H](C)C(=O)/C=C/C(C)=C/[C@@H]1CO (stereo partly shown) [YT762],,
≤ 0.015 µg/mL,4 µg/mL,0.25 µg/mL,≤ 0.015 µg/mL,≤ 0.015 µg/mL,≤ 0.015 µg/mL,0.25 µg/mL,,CC[C@H]1OC(=O)C[C@@H](O)[C@H](C)[C@@H](O[C@@H]2OC(C)[C@@H](O)C(N(C)C)C2O)[C@@H](CCN(C)Cc2cn(-c3cnc4ccccc4c3)nn2)C[C@@H](C)C(=O)/C=C/C(C)=C/[C@@H]1CN1CCCCC1 (stereo partly shown) [YT769],,
